Measurements reported in patent US20220220128A1, “HETEROCYCLIC COMPOUNDS AS KINASE INHIBITORS, COMPOSITIONS COMPRISING THE HETEROCYCLIC COMPOUND, AND METHODS OF USE THEREOF” (JS Innopharm (Shanghai) Ltd, priority 2019, published 2022).
Values belong to the compound of their own block, whether it stands above or below them.

Columns and labels:
TT cells = test: TT Cell Proliferation Assay (WST-8, 8 days); type: cell-based; settings: Homo sapiens, TT, 192 h, growth inhibition in TT cells, read-out: TT Cellular Activity
In short: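 IC50 was derived from absorbance at 450 nm after 5 h with WST-8, following 8 days' incubation at 37 °C. Final compound levels spanned 0.0005–5 μM in 0.5% DMSO. TT cells were seeded at 6,000 per well in 10% FBS RPMI-1640 and left to attach for 24 h beforehand.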

human RET kinase = target: T1, human RET kinase (Homo sapiens, UniProt P07949); test: RET Kinase Assay (LanthaScreen TR-FRET enzymatic assay); type: biochemical; settings: 7 nM RET, 23 μM ATP
T1 construct: purchased Carna 08-159
T1 sequence (P07949 29-1114): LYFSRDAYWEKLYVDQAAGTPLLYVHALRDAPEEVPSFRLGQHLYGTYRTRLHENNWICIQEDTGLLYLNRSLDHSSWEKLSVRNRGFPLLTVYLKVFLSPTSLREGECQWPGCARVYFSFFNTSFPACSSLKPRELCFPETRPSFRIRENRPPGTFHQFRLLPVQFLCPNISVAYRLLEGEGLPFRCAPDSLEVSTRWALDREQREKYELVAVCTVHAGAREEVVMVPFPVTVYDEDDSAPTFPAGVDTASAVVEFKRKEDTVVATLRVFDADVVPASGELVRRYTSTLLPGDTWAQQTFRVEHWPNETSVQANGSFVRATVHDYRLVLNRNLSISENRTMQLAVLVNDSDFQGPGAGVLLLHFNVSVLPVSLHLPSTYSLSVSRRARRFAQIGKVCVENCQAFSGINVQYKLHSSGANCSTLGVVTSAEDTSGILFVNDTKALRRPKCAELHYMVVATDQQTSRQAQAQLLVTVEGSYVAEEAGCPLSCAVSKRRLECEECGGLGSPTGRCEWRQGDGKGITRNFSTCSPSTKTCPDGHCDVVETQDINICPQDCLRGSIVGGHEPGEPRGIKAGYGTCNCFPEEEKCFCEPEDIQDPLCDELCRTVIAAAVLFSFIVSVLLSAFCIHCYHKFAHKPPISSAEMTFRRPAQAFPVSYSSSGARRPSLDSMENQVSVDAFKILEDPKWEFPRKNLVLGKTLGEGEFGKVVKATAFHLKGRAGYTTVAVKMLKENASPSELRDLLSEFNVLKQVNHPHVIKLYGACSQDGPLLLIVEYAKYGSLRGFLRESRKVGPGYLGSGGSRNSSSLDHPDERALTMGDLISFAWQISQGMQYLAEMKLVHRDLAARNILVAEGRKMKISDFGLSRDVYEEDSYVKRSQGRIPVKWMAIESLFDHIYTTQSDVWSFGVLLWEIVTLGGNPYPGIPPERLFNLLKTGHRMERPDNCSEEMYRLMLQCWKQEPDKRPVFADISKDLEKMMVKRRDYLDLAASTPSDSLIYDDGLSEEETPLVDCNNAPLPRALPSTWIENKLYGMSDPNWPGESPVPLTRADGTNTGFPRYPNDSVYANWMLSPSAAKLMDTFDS
In short: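 TR-FRET enzymatic read-out using 23 μM ATP, 3 μM FAM-P2 substrate and 7 nM human RET, after 15-min compound pretreatment at room temperature and a 1 h reaction at 28° C in HEPES pH 7.5 buffer. Percent of DMSO control fitted to nonlinear sigmoid curves for IC50.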

human KDR kinase = target: T2, human KDR kinase (Homo sapiens, UniProt P35968); test: KDR Kinase Assay (LanthaScreen TR-FRET enzymatic assay); type: biochemical; settings: 1.2 nM KDR, 92 μM ATP
T2 construct: purchased Carna 08-191
T2 sequence (P35968 20-1356): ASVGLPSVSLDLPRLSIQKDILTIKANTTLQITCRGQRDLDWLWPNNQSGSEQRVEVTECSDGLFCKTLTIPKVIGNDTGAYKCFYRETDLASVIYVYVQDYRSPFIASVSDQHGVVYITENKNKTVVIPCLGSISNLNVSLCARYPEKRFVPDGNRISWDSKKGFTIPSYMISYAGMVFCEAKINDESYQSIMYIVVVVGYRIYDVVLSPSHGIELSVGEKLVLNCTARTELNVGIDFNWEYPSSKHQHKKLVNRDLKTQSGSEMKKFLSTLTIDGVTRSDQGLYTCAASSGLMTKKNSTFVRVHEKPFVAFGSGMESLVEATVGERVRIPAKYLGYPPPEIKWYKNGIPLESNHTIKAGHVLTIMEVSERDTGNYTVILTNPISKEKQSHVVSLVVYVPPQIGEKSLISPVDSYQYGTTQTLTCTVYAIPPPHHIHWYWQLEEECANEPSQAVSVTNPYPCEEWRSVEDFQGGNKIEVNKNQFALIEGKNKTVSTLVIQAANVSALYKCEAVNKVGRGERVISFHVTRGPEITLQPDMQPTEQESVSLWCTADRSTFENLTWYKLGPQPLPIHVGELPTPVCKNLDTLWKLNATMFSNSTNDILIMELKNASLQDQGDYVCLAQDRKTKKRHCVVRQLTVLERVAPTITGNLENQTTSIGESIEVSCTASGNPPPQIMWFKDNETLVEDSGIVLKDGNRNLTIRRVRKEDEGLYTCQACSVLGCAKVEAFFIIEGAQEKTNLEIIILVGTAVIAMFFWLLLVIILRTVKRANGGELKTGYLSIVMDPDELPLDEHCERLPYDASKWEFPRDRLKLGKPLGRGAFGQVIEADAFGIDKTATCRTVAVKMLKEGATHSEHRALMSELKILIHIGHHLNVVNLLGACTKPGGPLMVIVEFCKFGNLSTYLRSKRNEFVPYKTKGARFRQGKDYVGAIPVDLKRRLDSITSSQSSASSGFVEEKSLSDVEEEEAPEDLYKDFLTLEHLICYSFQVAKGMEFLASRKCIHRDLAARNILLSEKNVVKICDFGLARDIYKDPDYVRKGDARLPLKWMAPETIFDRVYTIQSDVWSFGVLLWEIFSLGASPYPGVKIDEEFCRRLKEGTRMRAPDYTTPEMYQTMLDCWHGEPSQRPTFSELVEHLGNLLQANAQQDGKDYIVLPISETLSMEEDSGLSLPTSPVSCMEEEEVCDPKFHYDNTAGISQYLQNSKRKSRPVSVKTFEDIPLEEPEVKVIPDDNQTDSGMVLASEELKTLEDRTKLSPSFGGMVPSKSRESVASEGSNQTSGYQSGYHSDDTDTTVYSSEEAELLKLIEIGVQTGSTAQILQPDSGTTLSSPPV
In short: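 TR-FRET enzymatic format: after 15-min room-temperature compound pretreatment, 1.2 nM human KDR phosphorylated 3 μM FAM-P22 with 92 μM ATP (HEPES pH 7.5, 28° C., one hour). Reactions were quenched with EDTA buffer. IC50 came from nonlinear sigmoid fits of percent-of-vehicle signal ratios.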

Compound: COc1ccc(NC(=O)N[C@H]2[C@@H]3CN(c4ccc(-c5cc(OCC(C)(C)O)cn6ncc(C#N)c56)cn4)C[C@@H]32)cn1 [Example 183, 1-((1R,5S,6s)-3-(5-(3-cyano-6-(2-hydroxy-2-methylpropoxy)pyrazolo[1,5-a]pyridin-4-yl)pyridin-2-yl)-3-azabicyclo[3.1.0]hexan-6-yl)-3-(6-methoxypyridin-3-yl)urea]
- IC50 (TT cells): > 100 nM
- IC50 (human RET kinase): 10 to 50 nM
- IC50 (human KDR kinase): > 100 nM

Compound: CC(C)(O)COc1cc(-c2ccc(N3C[C@@H]4[C@@H](CNS(=O)(=O)c5c(F)cccc5Cl)[C@@H]4C3)nc2)c2c(C#N)cnn2c1 [Example 184, 2-chloro-N-(((1R,5S,6r)-3-(5-(3-cyano-6-(2-hydroxy-2-methylpropoxy)pyrazolo[1,5-a]pyridin-4-yl)pyridin-2-yl)-3-azabicyclo[3.1.0]hexan-6-yl)methyl)-6-fluorobenzenesulfonamide]
- IC50 (TT cells): 50 to 100 nM
- IC50 (human RET kinase): 10 to 50 nM
- IC50 (human KDR kinase): > 100 nM

Compound: COc1cc(-c2ccc(N3C[C@@H]4C[C@@](C)(NC(=O)c5ncccc5Cl)C[C@@H]4C3)nc2)c2c(C#N)cnn2c1 [Example 52, 3-chloro-N-((3aR,5s,6aS)-2-(5-(3-cyano-6-methoxypyrazolo[1,5-a]pyridin-4-yl)pyridin-2-yl)-5-methyloctahydro-cyclopenta[c]pyrrol-5-yl)picolinamide]
- IC50 (TT cells): 10 to 50 nM
- IC50 (human RET kinase): ≤ 10 nM
- IC50 (human KDR kinase): 50 to 100 nM

Compound: Cn1ccc(-c2cc(-c3ccc(N4C[C@@H]5[C@H](C4)[C@H]5NC(=O)c4ncccc4Cl)nc3)c3c(C#N)cnn3c2)n1 [Example 29, 3-chloro-N-((1R,5S,6s)-3-(5-(3-cyano-6-(1-methyl-1H-pyrazol-3-yl)pyrazolo[1,5-a]pyridin-4-yl)pyridin-2-yl)-3-azabicyclo[3.1.0]hexan-6-yl)picolinamide]
- IC50 (TT cells): 50 to 100 nM
- IC50 (human RET kinase): ≤ 10 nM
- IC50 (human KDR kinase): 10 to 50 nM

Compound: Cn1cc(-c2cc(-c3ccc(N4C5CC6CC4CC(NC(=O)c4ncccc4Cl)(C6)C5)nc3)c3c(C#N)cnn3c2)cn1 [Example 89, 3-chloro-N-((1R,3S,5s,7s)-2-(5-(3-cyano-6-(1-methyl-1H-pyrazol-4-yl)pyrazolo[1,5-a]pyridin-4-yl)pyridin-2-yl)-2-azaadamantan-5-yl)picolinamide]
- IC50 (TT cells): ≤ 10 nM
- IC50 (human RET kinase): ≤ 10 nM
- IC50 (human KDR kinase): ≤ 10 nM

Compound: CCOc1cc(-c2cnc(N3C[C@@H]4[C@H](C3)[C@@H]4NC(=O)c3ncccc3Cl)cn2)c2c(C#N)cnn2c1 [Example 41, 3-chloro-N-((1R,5S,6r)-3-(5-(3-cyano-6-ethoxypyrazolo[1,5-a]pyridin-4-yl)pyrazin-2-yl)-3-azabicyclo[3.1.0]hexan-6-yl)picolinamide]
- IC50 (TT cells): > 100 nM
- IC50 (human RET kinase): > 100 nM
- IC50 (human KDR kinase): > 100 nM

Compound: Cn1cc(-c2cc(-c3ccc(N4C[C@@H]5C[C@@](C)(NC(=O)c6c(F)cccc6Cl)C[C@@H]5C4)nc3)c3c(C#N)cnn3c2)cn1 [Example 57, 2-chloro-N-((3aR,5s,6aS)-2-(5-(3-cyano-6-(1-methyl-1H-pyrazol-4-yl)pyrazolo[1,5-a]pyridin-4-yl)pyridin-2-yl)-5-methyloctahydro-cyclopenta[c]pyrrol-5-yl)-6-fluorobenzamide]
- IC50 (TT cells): ≤ 10 nM
- IC50 (human RET kinase): 10 to 50 nM
- IC50 (human KDR kinase): > 100 nM

Compound: Cn1ccc(-c2cc(-c3ccc(N4C[C@@H]5CN(S(=O)(=O)c6c(F)cccc6Cl)C[C@@H]5C4)nc3)c3c(C#N)cnn3c2)n1 [Example 179, 4-(6-((3aR,6aS)-5-((2-chloro-6-fluorophenyl)sulfonyl)hexahydropyrrolo[3,4-c]pyrrol-2(1H)-yl)pyridin-3-yl)-6-(1-methyl-1H-pyrazol-3-yl)pyrazolo[1,5-a]pyridine-3-carbonitrile]
- IC50 (TT cells): ≤ 10 nM
- IC50 (human RET kinase): 10 to 50 nM
- IC50 (human KDR kinase): 10 to 50 nM

Compound: Cn1cc(-c2cc(-c3ccc(N4C[C@@H]5C[C@@](C)(NC(=O)c6ncccc6F)C[C@@H]5C4)nc3)c3c(C#N)cnn3c2)cn1 [Example 91, N-((3aR,5s,6aS)-2-(5-(3-cyano-6-(1-methyl-1H-pyrazol-4-yl)pyrazolo[1,5-a]pyridin-4-yl)pyridin-2-yl)-5-methyloctahydrocyclopenta[c]pyrrol-5-yl)-3-fluoropicolinamide]
- IC50 (TT cells): ≤ 10 nM
- IC50 (human RET kinase): ≤ 10 nM
- IC50 (human KDR kinase): ≤ 10 nM

Compound: CC(C)(O)COc1cc(-c2ccc(N3C[C@@H]4C[C@@](C)(NS(=O)(=O)c5c(F)cccc5Cl)C[C@@H]4C3)nc2)c2c(C#N)cnn2c1 [Example 197, 2-chloro-N-((3aR,5s,6aS)-2-(5-(3-cyano-6-(2-hydroxy-2-methylpropoxy)pyrazolo[1,5-a]pyridin-4-yl)pyridin-2-yl)-5-methyloctahydrocyclopenta[c]pyrrol-5-yl)-6-fluorobenzenesulfonamide]
- IC50 (TT cells): 10 to 50 nM
- IC50 (human RET kinase): ≤ 10 nM
- IC50 (human KDR kinase): 10 to 50 nM

Compound: CC(C)CC(=O)N[C@H]1[C@@H]2CN(c3ccc(-c4cc(-c5cnn(C)c5)cn5ncc(C#N)c45)cn3)C[C@@H]21 [Example 25, N-((1R,5S,6s)-3-(5-(3-cyano-6-(1-methyl-1H-pyrazol-4-yl)pyrazolo[1,5-a]pyridin-4-yl)pyridin-2-yl)-3-azabicyclo[3.1.0]hexan-6-yl)-3-methylbutanamide]
- IC50 (TT cells): 10 to 50 nM
- IC50 (human RET kinase): ≤ 10 nM
- IC50 (human KDR kinase): 10 to 50 nM

Compound: Cn1cc(-c2cc(-c3ccc(N4C[C@@H]5[C@H](C4)[C@@H]5NC(=O)c4ncccc4Cl)nc3)c3c(C#N)cnn3c2)cn1 [Example 30, 3-chloro-N-((1R,5S,6r)-3-(5-(3-cyano-6-(1-methyl-1H-pyrazol-4-yl)pyrazolo[1,5-a]pyridin-4-yl)pyridin-2-yl)-3-azabicyclo[3.1.0]hexan-6-yl)picolinamide]
- IC50 (TT cells): 10 to 50 nM
- IC50 (human RET kinase): ≤ 10 nM
- IC50 (human KDR kinase): 10 to 50 nM

Compound: CC(C)(O)COc1cc(-c2ccc(N3C[C@@H]4[C@@H](CNC(=O)c5ncccc5Cl)[C@@H]4C3)nc2)c2c(C#N)cnn2c1 [Example 95, 3-chloro-N-(((1R,5S,6s)-3-(5-(3-cyano-6-(2-hydroxy-2-methylpropoxy)pyrazolo[1,5-a]pyridin-4-yl)pyridin-2-yl)-3-azabicyclo[3.1.0]hexan-6-yl)methyl)picolinamide]
- IC50 (TT cells): 10 to 50 nM
- IC50 (human RET kinase): ≤ 10 nM
- IC50 (human KDR kinase): > 100 nM

More lines, main results first:

- IC50 (human RET kinase): ≤ 10 nM
- IC50 (human KDR kinase): 10 to 50 nM
Compound: Cc1ccc(F)cc1C(=O)NC[C@@H]1[C@H]2CN(c3ccc(-c4cc(-c5cnn(C)c5)cn5ncc(C#N)c45)cn3)C[C@@H]12 [Example 81, N-(((1R,5S,6s)-3-(5-(3-cyano-6-(1-methyl-1H-pyrazol-4-yl)pyrazolo[1,5-a]pyridin-4-yl)pyridin-2-yl)-3-azabicyclo[3.1.0]hexan-6-yl)methyl)-5-fluoro-2-methylbenzamide]
- IC50 (TT cells): ≤ 10 nM

- IC50 (human RET kinase): ≤ 10 nM
- IC50 (human KDR kinase): 50 to 100 nM
Compound: CCOc1cc(-c2ccc(N3C[C@@H]4C[C@@](C)(NC(=O)c5cc(F)ccc5Cl)C[C@@H]4C3)nc2)c2c(C#N)cnn2c1 [Example 68, 2-chloro-N-((3aR,5s,6aS)-2-(5-(3-cyano-6-ethoxypyrazolo[1,5-a]pyridin-4-yl)pyridin-2-yl)-5-methyloctahydrocyclopenta[c]pyrrol-5-yl)-5-fluorobenzamide]
- IC50 (TT cells): 10 to 50 nM

- IC50 (human RET kinase): ≤ 10 nM
- IC50 (human KDR kinase): > 100 nM
Compound: COc1ccc(CN2C[C@@H]3CN(c4ccc(-c5cc(OCC(C)(C)O)cn6ncc(C#N)c56)cn4)C[C@@H]3C2)cn1 [Example 14, 6-(2-hydroxy-2-methylpropoxy)-4-(6-((3aR,6aS)-5-((6-methoxypyridin-3-yl)methyl)hexahydropyrrolo[3,4-c]pyrrol-2(1H)-yl)pyridin-3-yl)pyrazolo[1,5-a]pyridine-3-carbonitrile]
- IC50 (TT cells): 10 to 50 nM

- IC50 (human RET kinase): ≤ 10 nM
- IC50 (human KDR kinase): ≤ 10 nM
Compound: Cn1cc(-c2cc(-c3ccc(N4C[C@@H]5[C@H](CNC(=O)C(O)c6ccccc6)[C@@H]5C4)nc3)c3c(C#N)cnn3c2)cn1 (stereo partly drawn) [Example 79, N-(((1R,5S,6r)-3-(5-(3-cyano-6-(1-methyl-1H-pyrazol-4-yl)pyrazolo[1,5-a]pyridin-4-yl)pyridin-2-yl)-3-azabicyclo[3.1.0]hexan-6-yl)methyl)-2-hydroxy-2-phenylacetamide]
- IC50 (TT cells): ≤ 10 nM

- IC50 (human RET kinase): ≤ 10 nM
- IC50 (human KDR kinase): 10 to 50 nM
Compound: Cn1cc(-c2cc(-c3ccc(N4C[C@H]5CN(C(=O)C(O)c6ccccc6)C[C@H]5C4)nc3)c3c(C#N)cnn3c2)cn1 (stereo partly drawn) [Example 3, 4-(6-((3aR,6aS)-5-(2-hydroxy-2-phenylacetyl)hexahydropyrrolo[3,4-c]pyrrol-2(1H)-yl)pyridin-3-yl)-6-(1-methyl-1H-pyrazol-4-yl)pyrazolo[1,5-a]pyridine-3-carbonitrile]
- IC50 (TT cells): 10 to 50 nM

- IC50 (human RET kinase): ≤ 10 nM
- IC50 (human KDR kinase): ≤ 10 nM
Compound: CC(C)C(O)C(=O)NC[C@H]1[C@H]2CN(c3ccc(-c4cc(-c5cnn(C)c5)cn5ncc(C#N)c45)cn3)C[C@@H]12 (stereo partly drawn) [Example 77, N-(((1R,5S,6r)-3-(5-(3-cyano-6-(1-methyl-1H-pyrazol-4-yl)pyrazolo[1,5-a]pyridin-4-yl)pyridin-2-yl)-3-azabicyclo[3.1.0]hexan-6-yl)methyl)-2-hydroxy-3-methylbutanamide]
- IC50 (TT cells): ≤ 10 nM
